Results published in patent publication US12492184B2, “Heteroaryl compounds, preparation methods and uses thereof” (InventisBio Co., Ltd., priority 2020, dated 2025).

Test system: HEK-Blue IL23 Reporter
Assay: HEK-Blue IL-23 STAT3 Reporter Assay
Format: cell-based, human
Details: SEAP read with QUANTI-Blue at OD655
Method: HEK-Blue IL23 cells (InvivoGen catalog #HKB-IL23) are designed for the detection of bioactive IL-23 by monitoring the activation of the STAT3 pathway. They were generated by stably introducing the genes for the human IL-23 receptor, STAT3, and the SEAP (secreted embryonic alkaline phosphatase) reporter gene into human HEK293 cell line.
Briefly, around 50,000 cells in DMEM medium supplemented with 10% heat inactivated FBS (˜180 ul) were seeded into each well and incubate for 48 hours at 37° C. with 5% CO2 in air. On day 3, one microliter of compound and 20 ul IL-23 were transferred to the assay plate respectively. The plate was left in the 37° C. incubator overnight. Two microliter of cell supernatant was transferred to a 384-well plate, and 18 ul of resuspended QUANTI-Blue solution was added to each well. SLAP levels were determined using Tecan Spark at OD655.
Cells with no IL23 added were used as Low control. Cells stimulated with IL23 were used as High control. Inhibition rate was calculated with the formula of % inhibition=100*(High control−Treated Well)/(High Control−Low control). IL-23 reporter assay inhibition IC50 was calculated with the equation of Y=Bottom+(Top-Bottom)/(1+10^((Log IC50−X)*HillSlope)).

[1] = Homo sapiens, HEK-Blue IL-23, HEK-Blue IL23 cells stimulated with IL-23 overnight
[2] = HEK-Blue IL23 cells stimulated with IL-23 overnight

Compound: [2H]C([2H])([2H])NC(=O)c1nnc(NC(=O)NC2CCC2)cc1Nc1ncc(OC)cc1S(C)(=O)=O [Compound 88]
- IC50 [1]: 0.6 nM

Compound: [2H]C([2H])([2H])NC(=O)c1nnc(NC(=O)N2CCC2)cc1Nc1ncc(OC)cc1S(C)(=O)=O [Compound 89]
- IC50 [1]: 7.9 nM

Compound: [2H]C([2H])([2H])NC(=O)c1nnc(NC(=O)C2CCCC2)cc1Nc1nccc2c1S(C)(=O)=NC2 (centres unmarked) [Compound 90]
- IC50 [2]: 4.2 nM

Compound: [2H]C([2H])([2H])NC(=O)c1nnc(NC(=O)C2CCCC2)cc1Nc1nccc2c1S(C)(=O)=NC2 (centres unmarked) [Compound 91]
- IC50 [2]: ≥ 1000 nM

Compound: [2H]C([2H])([2H])NC(=O)c1nnc(NC(=O)N2CCCC2)cc1Nc1nccc2c1S(C)(=O)=NC2 (centres unmarked) [Compound 92]
- IC50 [2]: ≥ 1000 nM

Compound: [2H]C([2H])([2H])NC(=O)c1nnc(NC(=O)N2CCCC2)cc1Nc1nccc2c1S(C)(=O)=NC2 (centres unmarked) [Compound 93]
- IC50 [2]: 13.6 nM

Compound: [2H]C([2H])([2H])NC(=O)c1nnc(NC(=O)[C@H]2CC23CC3)cc1Nc1ncccc1S1(=O)=NCCC1 (some centres unmarked) [Compound 95]
- IC50 [2]: 19.5 nM

Compound: [2H]C([2H])([2H])CC(=O)c1nnc(NC(=O)[C@H]2CC23CC3)cc1Nc1ncccc1S(C)(=O)=O [Compound 96]
- IC50 [1]: 189 nM

Compound: [2H]C([2H])([2H])NC(=O)c1nnc(NC(=O)[C@H]2CC23CC3)cc1Nc1ncccc1S(C)(=O)=NC (some centres unmarked) [Compound 98]
- IC50 [2]: 188 nM

Compound: [2H]C([2H])([2H])NC(=O)c1nnc(NC(=O)[C@H]2CC23CC3)cc1Nc1ncc(SC(F)(F)F)cc1S(C)(=O)=O [Compound 99]
- IC50 [1]: 15.6 nM

Compound: [2H]C([2H])([2H])NC(=O)c1nnc(NC(=O)[C@H]2CC23CC3)cc1Nc1nc(C)c(OC)cc1S(C)(=O)=O [Compound 100]
- IC50 [1]: 2.1 nM

Compound: [2H]C([2H])([2H])NC(=O)c1nnc(NC(=O)[C@H]2CC23CC3)cc1Nc1nccc(C2CC2)c1S(C)(=O)=O [Compound 101]
- IC50 [1]: 11.5 nM

Compound: [2H]C([2H])([2H])NC(=O)c1nnc(NC(=O)[C@H]2CC23CC3)cc1Nc1ncc(Cl)cc1S(C)(=O)=O [Compound 102]
- IC50 [1]: 3.7 nM

Compound: [2H]C([2H])([2H])NC(=O)c1nnc(NC(=O)[C@H]2CC23CC3)cc1Nc1nscc1S(C)(=O)=O [Compound 103]
- IC50 [1]: 5.7 nM

Compound: [2H]C([2H])([2H])CC(=O)c1nnc(NC(=O)[C@H]2CC23CC3)cc1Nc1ncc(OC)cc1S(C)(=O)=O [Compound 104]
- IC50 [1]: 119 nM

Compound: [2H]C([2H])([2H])NC(=O)c1nnc(NC(=O)[C@H]2CC23CC3)cc1Nc1ncc(C(F)F)cc1S(C)(=O)=O [Compound 105]
- IC50 [1]: 6.7 nM

Compound: [2H]C([2H])([2H])NC(=O)c1nnc(NC(=O)[C@H]2CC23CC3)cc1Nc1ncc(OC(F)F)cc1S(C)(=O)=O [Compound 106]
- IC50 [1]: 3.6 nM

Compound: [2H]C([2H])([2H])NC(=O)c1nnc(NC(=O)[C@H]2CC23CC3)cc1Nc1ncc(OCCOC)cc1S(C)(=O)=O [Compound 107]
- IC50 [1]: 0.8 nM

Compound: [2H]C([2H])([2H])NC(=O)c1nnc(NC(=O)[C@H]2CC23CC3)cc1Nc1ncc(OCCN(C)C)cc1S(C)(=O)=O [Compound 108]
- IC50 [1]: 19.5 nM

Compound: [2H]C([2H])([2H])NC(=O)c1nnc(NC(=O)[C@H]2CC23CC3)cc1Nc1ncc(C2(F)COC2)cc1S(C)(=O)=O [Compound 109]
- IC50 [1]: 284 nM

Compound: [2H]C([2H])([2H])NC(=O)c1nnc(NC(=O)[C@H]2CC23CC3)cc1Nc1ncc(OC2COC2)cc1S(C)(=O)=O [Compound 110]
- IC50 [1]: 2.7 nM

Compound: [2H]C([2H])([2H])NC(=O)c1nnc(NC(=O)[C@H]2CC23CC3)cc1Nc1ncc(OCC(C)(C)O)cc1S(C)(=O)=O [Compound 111]
- IC50 [1]: 7.5 nM

Compound: [2H]C([2H])([2H])NC(=O)c1nnc(NC(=O)[C@H]2CC23CC3)cc1Nc1ncc(OC[C@H](C)OC)cc1S(C)(=O)=O [Compound 112]
- IC50 [1]: 2.7 nM

Compound: [2H]C([2H])([2H])NC(=O)c1nnc(NC(=O)[C@H]2CC23CC3)cc1Nc1ncc(OC[C@@H](C)OC)cc1S(C)(=O)=O [Compound 113]
- IC50 [1]: 1.2 nM

Compound: [2H]C([2H])([2H])NC(=O)c1nnc(NC(=O)[C@H]2CC23CC3)cc1Nc1ncc(O[C@@H](C)COC)cc1S(C)(=O)=O [Compound 114]
- IC50 [1]: 1 nM

Compound: [2H]C([2H])([2H])NC(=O)c1nnc(NC(=O)[C@H]2CC23CC3)cc1Nc1ncc(O[C@H](C)COC)cc1S(C)(=O)=O [Compound 115]
- IC50 [1]: 3.5 nM

Compound: [2H]C([2H])([2H])NC(=O)c1nnc(NC(=O)[C@@H]2CC23CC3)cc1Nc1ncc(OCCOC(F)F)cc1S(C)(=O)=O [Compound 116]
- IC50 [1]: 3 nM

Compound: [2H]C([2H])([2H])NC(=O)c1nnc(NC(=O)[C@@H]2CC23CC3)cc1Nc1ncc(OCCOC=O)cc1S(C)(=O)=O [Compound 117]
- IC50 [1]: 5.7 nM

Compound: [2H]C([2H])([2H])NC(=O)c1cnc(NC(=O)[C@@H]2CC23CC3)cc1Nc1ncc(C2CC2)cc1S(C)(=O)=O [Compound 118]
- IC50 [1]: 0.6 nM
